Test results as given in publication PMC11131246, “Molecular determinants for brain targeting by peptides: a meta-analysis approach with experimental validation” (Fluids and Barriers of the CNS, 2024).
Like-named read-outs stand apart in the source and are kept apart here. Residues, ends and D or L forms follow the SMILES beside them.

Legend:
[1] = Cytotoxicity, CellTiter-Blue cell viability assay; type: cell-based; conditions: human; CellTiter-Blue, peptides 0.05–100.0 µM, 24 h; triplicates, three independent cultures; read-out: Cytotoxicity IC50 HeLa
Method: (§1) Peptide cytotoxicity was determined using the CellTiter-Blue® cell viability assay, following a described protocol. Briefly, all cell lines were carefully harvested with trypsin–EDTA and seeded 10.000–20.000 cells/100 μL into 96-well clear flat-bottomed polystyrene plates (Corning, USA) for 24 h. After medium removal, cells were washed twice with 1X PBS, and 100 µL of previously diluted peptides (range from 0.05–100.0 µM) in the respective medium were added to cells. Then, after 24 h, cells were washed twice with 1X PBS and 20 µL of CellTiter-Blue® Reagent (diluted in 100 µL of medium) was added to each well and incubated for 3 h in culturing conditions. The fluorescence intensity was measured using Varioskan™ LUX multimode microplate reader.
(§2) IC50 values were determined using GraphPad Prism 7.0 software using a log(inhibitor) versus normalized response. Experiments were performed in triplicates on different days using three independently grown cell cultures.

[2] = Cytotoxicity, CellTiter-Blue cell viability assay; type: cell-based; conditions: human; CellTiter-Blue, peptides 0.05–100.0 µM, 24 h; triplicates, three independent cultures; read-out: Cytotoxicity IC50 Hs68
Method: as §1, §2

[3] = Biodistribution of 67Ga-radiolabeled peptides; set-up: species or system mouse; conditions: in vivo, iv, 100 uCi, total radioactivity, i.v. tail vein, mean ± SD, n = 3; for tissue uptake at 1 h: female, CD1, mouse, 1 h post injection
Method: All animal experiments were performed in compliance with national and EU legislation for good practices on laboratory animal science. The animals were housed in a temperature and humidity-controlled environment with a 12 h light/12 h dark schedule. Biodistribution of radiolabeled peptides was performed on 7 weeks old CD1 female mice.
Animals were intravenously injected into the tail vein with 100 µL of a 25 µM saline solution of the ^67Ga-peptide with a radioactivity around 100 µCi. The mice were euthanized by cervical dislocation at 2 min and 1 h after injection. The dose administered and the radioactivity in the euthanized animals was measured using a dose calibrator (Carpintec CRC-15W, Ramsey, USA). The difference between the radioactivity in the injected and the euthanized animals was assumed to be due to excretion. Brain and tissues of interest without previous perfusion were dissected, washed, and weighed, and their radioactivity was measured using a γ counter (Hidex AMG, Hidex, Turku, Finland). The uptake in the brain and tissues of interest was calculated and expressed as a percentage of injected radioactivity dose per gram of tissue (% ID/g).

[4] = Analytical RP-HPLC retention time (used as indication of hydrophobicity); type: physicochemical; conditions: analytical reverse phase HPLC, UV chromatogram; free and CF-labelled peptides
[5] = tested on: HBEC-5i cells; experiment: Translocation across in vitro BBB model (HBEC-5i monolayer, transwell); type: in vitro ADME, human; conditions: HBEC-5i monolayer on AF-coated PET transwell inserts (1.0 µm pores), 8 days, CF-peptide 5.0 µM in DMEM:F12 without phenol red added to apical side, 24 h, fluorescence, plate reader, mean ± SD, triplicates of three independent experiments
Method: Throughout 8 days, medium was changed every other day. On the day of the experiment, cells were washed twice with 1X PBS (137.0 mM NaCl, 2.7 mM KCl, 10.0 mM Na2HPO4, and 1.8 mM KH2PO4), and once with DMEM:F12 without phenol red. Then, CF-peptides (5.0 μM, in DMEM:F12 without phenol red) were added to the apical side of the in vitro BBB model and incubated for 24 h. Finally, samples from the apical and basolateral side were collected and fluorescence intensity analyzed using a Varioskan^TM LUX multimode microplate reader (Thermo Fisher, Spain). […] Experiments were performed in triplicates on different days using three independently grown cell cultures. Seeking experimental support for our hypothesis, we have synthesized and tested in vitro the activity of ten peptides (Table 1), selected among the 14 BBBpS entries by their lowest S score in an OLS ranking.

[6] = Cytotoxicity, CellTiter-Blue cell viability assay; type: cell-based; conditions: human; CellTiter-Blue, peptides 0.05–100.0 µM, 24 h; triplicates, three independent cultures; read-out: Cytotoxicity IC50 HEK-293
Method: as §1, §2

[7] = Cytotoxicity, CellTiter-Blue cell viability assay; type: cell-based; conditions: human; CellTiter-Blue, peptides 0.05–100.0 µM, 24 h; triplicates, three independent cultures
Method: as §1, §2

[8] = Cytotoxicity, CellTiter-Blue cell viability assay; type: cell-based; conditions: human; read-out: Cytotoxicity IC50 HBEC-5i
Method: as §1, §2

`CC[C@H](C)[C@H](NC(=O)CNC(=O)[C@H](CCCNC(=N)N)NC(=O)[C@H](Cc1ccc(O)cc1)NC(=O)[C@H](CS)NC(=O)[C@@H](NC(=O)[C@H](CCCNC(=N)N)NC(=O)[C@H](Cc1ccccc1)NC(=O)[C@H](CS)NC(=O)[C@H](Cc1c[nH]c2ccccc12)NC(=O)[C@@H](N)CCCCN)C(C)C)C(=O)N[C@@H](CS)C(=O)N[C@@H](Cc1ccc(O)cc1)C(=O)N[C@@H](CCCNC(=N)N)C(=O)N[C@@H](CCCNC(=N)N)C(=O)N[C@@H](CS)C(=O)N[C@@H](CCCNC(=N)N)C(N)=O` [non-BBBpS_2] (H-KWCFRVCYRGICYRRCR-NH2) gave an IC50 at 24 h [1] of 39.4 ± 1.8 µM, an IC50 at 24 h [2] of 26.4 ± 2.9 µM and a tissue uptake at 1 h ([3]; brain without perfusion, CD1 female mice, γ counter, read-out: Tissue distribution, Brain (brain uptake)) of 0.13 ± 0.03 %ID/g. For the same compound, the tissue uptake at 1 h ([3]; liver, CD1 mice, read-out: Tissue distribution, Liver) was 22.8 ± 10.1 %ID/g, the tissue uptake at 2 min ([3]; mouse, brain without perfusion, 2 min post injection, CD1 female mice, 100 µL of 25 µM 67Ga-peptide, γ counter, read-out: Tissue distribution, Brain (brain uptake)) was 0.27 ± 0.04 %ID/g and the “HPLC tR” value [4] was 6.81 min. For the same compound, the “Translocation (%) HBEC-5i” value [5] was 2.6 ± 1.2%, the IC50 at 24 h [6] was 14.7 ± 1.4 µM and the IC50 at 24 h [7] was 26.9 ± 3 µM. For the same compound, the IC50 at 24 h [8] was 20.7 ± 1 µM.
